The record followed here is ChEMBL document CHEMBL1136352, “Synthesis of 2-fluoronoraristeromycin and its inhibitory activity against Plasmodium falciparum S-adenosyl-L-homocysteine hydrolase” (Bioorg Med Chem Lett, 2003).

pEC50, pIC50, pKi: −log10 of the molar value.

In one assay the test system is FM3A. As to the kind of experiment: Inhibitory activity against mammalian FM3A cell. The format is functional, cell-based. To be noted: Mus musculus.
In another assay the test system is Plasmodium falciparum. As to the kind of experiment: Inhibitory activity against Plasmodium falciparum. The format is functional, organism-based.
Assay [1] has as its target Adenosylhomocysteinase (Homo sapiens, UniProt P23526). As to the kind of experiment: Inhibitory activity against human S-adenosyl-L-homocysteine hydrolase.
The target of assay [2] is Adenosylhomocysteinase (Plasmodium falciparum 3D7, UniProt P50250). As to the kind of experiment: Inhibitory activity against Plasmodium falciparum S-adenosyl-L-homocysteine hydrolase.
Chain of Adenosylhomocysteinase (Plasmodium falciparum 3D7, UniProt P50250) (P50250 whole entry): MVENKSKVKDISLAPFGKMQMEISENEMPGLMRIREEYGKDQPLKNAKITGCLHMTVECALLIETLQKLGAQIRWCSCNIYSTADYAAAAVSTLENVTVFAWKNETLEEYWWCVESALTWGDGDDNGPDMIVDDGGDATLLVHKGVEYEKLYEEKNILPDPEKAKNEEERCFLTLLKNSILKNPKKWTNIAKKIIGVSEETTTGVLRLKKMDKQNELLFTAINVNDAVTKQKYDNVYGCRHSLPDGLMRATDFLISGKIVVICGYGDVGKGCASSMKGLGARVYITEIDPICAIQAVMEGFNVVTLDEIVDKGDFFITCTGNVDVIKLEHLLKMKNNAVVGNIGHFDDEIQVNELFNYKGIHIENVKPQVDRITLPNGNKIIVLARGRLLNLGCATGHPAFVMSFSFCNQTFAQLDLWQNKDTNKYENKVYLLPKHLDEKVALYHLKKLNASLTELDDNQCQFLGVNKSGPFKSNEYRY

Chain of Adenosylhomocysteinase (Homo sapiens, UniProt P23526) (P23526 whole entry): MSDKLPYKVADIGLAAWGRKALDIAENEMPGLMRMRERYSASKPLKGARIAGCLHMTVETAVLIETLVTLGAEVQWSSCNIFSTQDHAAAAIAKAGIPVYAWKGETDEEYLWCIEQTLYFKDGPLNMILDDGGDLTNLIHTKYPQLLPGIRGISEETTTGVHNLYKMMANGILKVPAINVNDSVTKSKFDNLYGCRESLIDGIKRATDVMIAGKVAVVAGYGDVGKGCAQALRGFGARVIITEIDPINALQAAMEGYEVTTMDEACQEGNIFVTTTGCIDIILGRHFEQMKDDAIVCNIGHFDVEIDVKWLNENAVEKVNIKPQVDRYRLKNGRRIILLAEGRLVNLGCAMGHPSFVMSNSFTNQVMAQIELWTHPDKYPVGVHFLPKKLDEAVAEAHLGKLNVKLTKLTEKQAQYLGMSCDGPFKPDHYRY

For the compound `Nc1ncnc2c1ncn2[C@@H]1C[C@H](O)[C@@H](O)[C@H]1O` [NORARISTEROMYCIN], the pEC50 in the assay on FM3A was 7.14; in the assay on Plasmodium falciparum, 5.13. Also, the pIC50 against Adenosylhomocysteinase [1] is 5.96; against Adenosylhomocysteinase [2], 5.51. Besides, the pKi was 6.80 on Adenosylhomocysteinase [1] and 6.74 on Adenosylhomocysteinase [2].
On to `Nc1nc(F)nc2c1ncn2[C@@H]1C[C@H](O)[C@@H](O)[C@H]1O`, for which the pEC50 was 5.14 in the assay with FM3A and 5.13 in the assay with Plasmodium falciparum. Moreover, the pIC50 was 4.20 against Adenosylhomocysteinase [1] and 4.89 against Adenosylhomocysteinase [2]. The pKi was 5.10 on Adenosylhomocysteinase [1] and 6.32 on Adenosylhomocysteinase [2].

A word on the pEC50: it is −log10 of the EC50, conventionally taken in molar units. Low readings indicate a large EC50, high ones a small EC50. The term pIC50 denotes the IC50 on a negative log10 scale, so that one unit is a factor of ten. A high value points to a small IC50. For orientation: pKi means −log10 of the Ki, conventionally taken in molar units. Lower therefore signals a high Ki.
